Measured values from US20080226605A1, “Methods and Compositions Facilitating Entry of Compounds Into Cells” (priority 2005, published 2008).

Tests used:
Format in all cases: cell-based, Human
DU145 cells [1] = assay: EGFP reporter uptake (pEGFP transfection, flow cytometry)
Experimental: (§1) Cell culture. Human prostate cancer cells DU145 were grown in RPMI 1640 medium, supplemented with 10% heat-inactivated fetal bovine serum (Life Technologies) under standard conditions (Carbone et al., Nucleic Acids Res. 2003, 31, 833-843; Carbone et al., Nucleic Acids Res 2004, 32, 4358-4367).
EGFP reporter uptake. DU145 cells were plated in 6-well plates at a density of 1.5×10^5 cells/well, grown overnight and then transfected. Trasfection mixtures contained 4 μg of pEGFP reporter plasmid with or without addition of neomycin and DOTAP at a 1:5 ratio as described above. Cells were incubated with the transfection complexes for 5 hours, then the medium was removed and replaced with fresh medium. After 24 hours, cells were harvested […], recovered by centrifugation, washed once with PBS, and then analyzed using a FACSCalibur (Becton Dickinson). Data were analyzed using Cell Quest software.
The effects of neomycin on transfection efficiency were further examined using another reporter system, a plasmid expressing green fluorescent protein, the pEGFP reporter vector. DU145 cells were transfected with the pEGFP plasmid in the presence of DOTAP, neomycin or both DOTAP and neomycin. After 24 hours, cells were collected and analyzed for EGFP expression by flow cytometry to examine both fluorescence intensity and percentage of EGFP-positive cells. […]

DU145 cells [2] = assay: Cellular uptake of fluorescein-labeled oligonucleotide (F-TFO), flow cytometry; conditions: F-TFO 125 nM; for percentage of fluorescein-positive cells: neomycin 5 μM where present
Experimental: as §1
Oligonucleotides and other reagents. The fluorescein-conjugated phosphorothioate oligonucleotide (F-TFO) was purchased from Sigma. The oligonucleotide was purified by high-performance liquid chromatography (HPLC). The sequence of the F-TFO, which is identical to the Ets2-TFO, has been published previously (Carbone et al., Nucleic Acids Res. 2003, 31, 833-843). Stock solutions of oligonucleotides were made in sterile water. Oligonucleotide concentrations were determined with a spectrophotometer using appropriate nucleotide extinction coefficients. DOTAP (1,2-dioleoyl-3-trimethyl-ammonium-propane) was purchased from Roche (Indianapolis, Ind.). Neomycin was purchased from Sigma, and used as described previously (Arya et al., J. Am. Chem. Soc. 2003, 125, 3733-3744).
Cellular uptake of oligonucleotides. Uptake of F-TFO and dauno-GT11 was examined 24 hours after transfection of DU145 cells (1.5×10^5 cells/well in 6-well plates) with DOTAP with or without the addition of neomycin as described above. Concentration of F-TFO was 125 nM, corresponding to about 1 μg of DNA/well. After 24 hours, cells were washed and analyzed using a FACSCalibur as described above.
Neomycin positively affected transfection efficiency of plasmid DNA mediated by DOTAP. This effect could be mediated by an increase in intracellular uptake and/or by an enhanced release of DNA from lipid complex into the cytoplasm. […] For the tests shown in FIG. 3, a phosporothioate oligonucleotide directed to the Ets2 gene promoter (Ets2-TFO) was conjugated at the 5′ end with fluorescein (Carbone et al., Nucleic Acids Res. 2003, 31, 833). Cells were transfected with the fluorescein labeled TFO (F-TFO) for 6 hours and then incubated for 24 hours in fresh medium before the analysis by flow cytometry. At the concentration used in the test, only about 7% of cells were fluorescein-positive when transfected with DOTAP alone. The percentage of fluorescein-positive cells increased to about 50% when the oligonucleotide was delivered using the combination of DOTAP and neomycin. Therefore, neomycin enhanced uptake of the F-TFO by approximately 7-fold.

DU145 cells [3] = assay: Luciferase reporter assay (transfection of reporter plasmids); conditions: neomycin added to the medium after the transfection
Experimental: as §1
Reporter plasmids. The reporter plasmid pGL3-Ets2 containing the firefly luciferase gene under control of Ets2 promoter has been previously described (Carbone et al., Nucleic Acids Res 2004, 32, 4358-4367). The pRL-SV40 reporter plasmid was purchased from Promega. The pEGFP plasmid was obtained from Clontech.
Luciferase reporter assay. DU145 cells were plated in 48-well plates at a density of 1.5×10^4 cells/well. After 24 hours, cells were transfected with DOTAP-DNA complexes as previously described (Carbone et al., Nucleic Acids Res. 2003, 31, 833-843). […] Mixtures of DNA-DOTAP and DNA-DOTAP-neomycin were allowed to sit at room temperature for 15 minutes for complex formation. […] Luciferase activity was measured with the Luciferase assay system from Promega.
The effects of neomycin in combination with the cationic lipid preparation DOTAP on the uptake of luciferase reporter plasmids was determined. […] The efficiency of transfection as assessed by the luciferase assay increased as the concentration of neomycin increased from 0.5 to 5 μM (FIG. 1A). […]

[4] = flow cytometry 24 hours after transfection

Compound | mean fluorescent intensity (EGFP) (DU145 cells [1]; pEGFP plasmid 4 μg, flow cytometry after 24 hours) | mean fluorescent intensity (F-TFO) (DU145 cells [2]; [4]) | percentage of fluorescein-positive cells (DU145 cells [2]; [4]) | efficiency of DNA uptake (DU145 cells [1]; pEGFP plasmid, neomycin alone (5 μM), without DOTAP) | effect on luciferase reporter activity (DU145 cells [3]) | oligonucleotide uptake (DU145 cells [2]; neomycin alone (5 μM), without DOTAP)
CCCCCCCC/C=C\CCCCCCCC(=O)OCC(C[N+](C)(C)C)OC(=O)CCCCCCC/C=C\CCCCCCCC (stereo not shown) [DOTAP, 1,2-dioleoyl-3-trimethyl-ammonium-propane] | 27.8 | 19.4 | about 7% | – | – | –
neomycin | – | – | 2.4% | marginally affected | No effect | did not affect
